In publication PMC11967169 (RSC Advances, 2025) one finds DC50 data, which are given here for one compound.

The test deals with hepatocyte growth factor receptor (MET), exon 14 skipped (Homo sapiens, UniProt P08581, DEL963-1009). In words: PROTAC degradation of METex14Δ-GFP by live cell imaging in HEK293. It counts as cell-based.

For the compound `COc1cc2c(Oc3ccc(NC(=O)C4(C(=O)Nc5ccc(F)cc5)CC4)cc3F)ccnc2cc1OCCCOCCCOCCC(=O)N[C@H](C(=O)N1C[C@H](O)C[C@H]1C(=O)NCc1ccc(-c2scnc2C)cc1)C(C)(C)C`, half-maximal degradation (DC50) was put at 2610 ± 115 nM.
